Biological target: GST-tagged-Wee1 kinase (Homo sapiens, UniProt P30291)
Test: Wee1 time-resolved fluorescence equilibrium binding assay (displacement of Oregon Green-labeled ATP-competitive kinase probe)
Procedure: Wee1 kinase was assayed using a time-resolved fluorescence equilibrium binding assay monitoring displacement of a rapidly reversible Oregon Green-labeled ATP-competitive kinase probe (N-(2-(2-(2-(4-(4-(5-chloro-4-(2-(1-hydroxycyclobutyl)thiazol-5-yl)-1H-pyrrolo[2,3-b]pyridin-2-yl)phenyl)piperazin-1-yl)ethoxy)ethoxy)ethyl)-2′,7′-difluoro-3′,6′-dihydroxy-3-oxo-3H-spiro[isobenzofuran-1,9′-xanthene]-5-carboxamide) by competitive Wee1 inhibitors.

Sequence of GST-tagged-Wee1 kinase (P30291 whole entry): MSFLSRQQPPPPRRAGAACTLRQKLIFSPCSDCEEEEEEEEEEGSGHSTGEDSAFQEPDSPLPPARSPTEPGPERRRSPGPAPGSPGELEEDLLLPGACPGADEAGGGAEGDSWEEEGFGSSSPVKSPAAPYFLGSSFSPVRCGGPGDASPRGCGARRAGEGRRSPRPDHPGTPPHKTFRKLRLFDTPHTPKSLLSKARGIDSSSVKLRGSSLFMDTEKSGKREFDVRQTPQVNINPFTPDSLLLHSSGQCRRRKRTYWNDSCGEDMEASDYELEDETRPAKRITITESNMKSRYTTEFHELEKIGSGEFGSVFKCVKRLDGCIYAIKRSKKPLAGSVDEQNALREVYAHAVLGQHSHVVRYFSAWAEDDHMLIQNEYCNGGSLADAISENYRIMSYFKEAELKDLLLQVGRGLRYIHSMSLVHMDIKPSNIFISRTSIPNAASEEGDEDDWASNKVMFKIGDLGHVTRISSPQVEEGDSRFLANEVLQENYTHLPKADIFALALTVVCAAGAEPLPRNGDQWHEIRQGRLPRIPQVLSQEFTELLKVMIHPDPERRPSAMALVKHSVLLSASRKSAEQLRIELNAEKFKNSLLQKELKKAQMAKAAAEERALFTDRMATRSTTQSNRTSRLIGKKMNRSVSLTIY

Compound	Ki [nM]
C=CCn1nc(-c2ccccc2)c2nc(Nc3ccc(N4CCN(C(C)C)CC4)c(OC)c3)ncc2c1=O [Example 114, 6-allyl-2-{[4-(4-isopropylpiperazin-1-yl)-3-methoxyphenyl]amino}-8-phenylpyrimido[4,5-d]pyridazin-5(6H)-one]	3
C=CCn1nc(-c2ccccc2)c2nc(Nc3ccc(N4CCCN(C(C)C)CC4)c(C)c3)ncc2c1=O [Example 115, 6-allyl-2-{[4-(4-isopropyl-1,4-diazepan-1-yl)-3-methylphenyl]amino}-8-phenylpyrimido[4,5-d]pyridazin-5(6H)-one]	4
Cc1cc(Nc2ncc3c(=O)n(-c4ccccc4C)nc(-c4ccccc4)c3n2)ccc1N1CCCN(C(C)C)CC1 [Example 116, 2-{[4-(4-isopropyl-1,4-diazepan-1-yl)-3-methylphenyl]amino}-6-(2-methylphenyl)-8-phenylpyrimido[4,5-d]pyridazin-5(6H)-one]	0.4
C=CCn1nc(-c2cccs2)c2nc(Nc3ccc4c(c3)CN(C)CC43CC3)ncc2c1=O [Example 117, 6-allyl-2-[(2′-methyl-2′,3′-dihydro-1′H-spiro[cyclopropane-1,4′-isoquinolin]-7′-yl)amino]-8-(2-thienyl)pyrimido[4,5-d]pyridazin-5(6H)-one]	3
Cc1ccccc1-n1nc(-c2cccs2)c2nc(Nc3ccc(N4CCN(C(C)C)CC4)cc3)ncc2c1=O [Example 118, 2-{[4-(4-isopropylpiperazin-1-yl)phenyl]amino}-6-(2-methylphenyl)-8-(2-thienyl)pyrimido[4,5-d]pyridazin-5(6H)-one]	1
Cc1cc(Nc2ncc3c(=O)n(-c4ccccc4C)nc(-c4cccs4)c3n2)ccc1N1CCN(C(C)C)CC1 [Example 119, 2-{[4-(4-isopropylpiperazin-1-yl)-3-methylphenyl]amino}-6-(2-methylphenyl)-8-(2-thienyl)pyrimido[4,5-d]pyridazin-5(6H)-one]	1
Cc1cc(Nc2ncc3c(=O)n(-c4ccccc4C)nc(-c4cccs4)c3n2)ccc1N1CCCN(C(C)C)CC1 [Example 120, 2-{[4-(4-isopropyl-1,4-diazepan-1-yl)-3-methylphenyl]amino}-6-(2-methylphenyl)-8-(2-thienyl)pyrimido[4,5-d]pyridazin-5(6H)-one]	1
O=C1CCCN1c1ccc(Nc2ncc3c(=O)n(-c4ccccc4Cl)nc(-c4cccs4)c3n2)cc1 [Example 121, 6-(2-chlorophenyl)-2-{[4-(2-oxopyrrolidin-1-yl)phenyl]amino}-8-(2-thienyl)pyrimido[4,5-d]pyridazin-5(6H)-one]	3
CC(C)N1CCN(c2ccc(Nc3ncc4c(=O)n(-c5ccccc5Cl)nc(-c5cccs5)c4n3)cc2)CC1 [Example 122, 6-(2-chlorophenyl)-2-{[4-(4-isopropylpiperazin-1-yl)phenyl]amino}-8-(2-thienyl)pyrimido[4,5-d]pyridazin-5(6H)-one]	0.5
CN1Cc2cc(Nc3ncc4c(=O)n(-c5ccccc5Cl)nc(-c5cccs5)c4n3)ccc2C2(CC2)C1 [Example 123, 6-(2-chlorophenyl)-2-[(2′-methyl-2′,3′-dihydro-1′H-spiro[cyclopropane-1,4′-isoquinolin]-7′-yl)amino]-8-(2-thienyl)pyrimido[4,5-d]pyridazin-5(6H)-one]	2
C=CCn1nc(-c2cccs2)c2nc(Nc3ccc(N4CCCC4=O)cc3)ncc2c1=O [Example 124, 6-allyl-2-{[4-(2-oxopyrrolidin-1-yl)phenyl]amino}-8-(2-thienyl)pyrimido[4,5-d]pyridazin-5(6H)-one]	75
C=CCn1nc(-c2cccs2)c2nc(Nc3ccc(S(=O)(=O)N4CCOCC4)cc3)ncc2c1=O [Example 125, 6-allyl-2-{[4-(morpholin-4-ylsulfonyl)phenyl]amino}-8-(2-thienyl)pyrimido[4,5-d]pyridazin-5(6H)-one]	> 3140
C=CCn1nc(-c2cccs2)c2nc(Nc3ccc(N4CCN(C(C)C)CC4)cc3)ncc2c1=O [Example 126, 6-allyl-2-{[4-(4-isopropylpiperazin-1-yl)phenyl]amino}-8-(2-thienyl)pyrimido[4,5-d]pyridazin-5(6H)-one]	6
C=CCn1nc(-c2cccs2)c2nc(Nc3ccc(N4CCN(C(C)C)CC4)c(C)c3)ncc2c1=O [Example 127, 6-allyl-2-{[4-(4-isopropylpiperazin-1-yl)-3-methylphenyl]amino}-8-(2-thienyl)pyrimido[4,5-d]pyridazin-5(6H)-one]	4
Cc1ccccc1-n1nc(-c2cccs2)c2nc(Nc3ccc(N4CCCC4=O)cc3)ncc2c1=O [Example 128, 6-(2-methylphenyl)-2-{[4-(2-oxopyrrolidin-1-yl)phenyl]amino}-8-(2-thienyl)pyrimido[4,5-d]pyridazin-5(6H)-one]	6
Cc1ccccc1-n1nc(-c2cccs2)c2nc(Nc3ccc(S(=O)(=O)N4CCOCC4)cc3)ncc2c1=O [Example 129, 6-(2-methylphenyl)-2-{[4-(morpholin-4-ylsulfonyl)phenyl]amino}-8-(2-thienyl)pyrimido[4,5-d]pyridazin-5(6H)-one]	> 3140
Cc1ccccc1-n1nc(-c2cccs2)c2nc(Nc3ccc4c(c3)CN(C)CC43CC3)ncc2c1=O [Example 130, 2-[(2′-methyl-2′,3′-dihydro-1′H-spiro[cyclopropane-1,4′-isoquinolin]-7′-yl)amino]-6-(2-methylphenyl)-8-(2-thienyl)pyrimido[4,5-d]pyridazin-5(6H)-one]	0.4
CC(C)N1CCN(c2ccc(Nc3ncc4c(=O)n(-c5ccccc5Cl)nc(-c5ccccc5)c4n3)cc2)CC1 [Example 131, 6-(2-chlorophenyl)-2-{[4-(4-isopropylpiperazin-1-yl)phenyl]amino}-8-phenylpyrimido[4,5-d]pyridazin-5(6H)-one]	0.5
COc1cc(Nc2ncc3c(=O)n(-c4ccccc4C)nc(-c4cccs4)c3n2)ccc1N1CCN(C(C)C)CC1 [Example 132, 2-{[4-(4-isopropylpiperazin-1-yl)-3-methoxyphenyl]amino}-6-(2-methylphenyl)-8-(2-thienyl)pyrimido[4,5-d]pyridazin-5(6H)-one]	0.7
Cc1cc(Nc2ncc3c(=O)n(-c4ccccc4C)nc(-c4ccco4)c3n2)ccc1N1CCN(C(C)C)CC1 [Example 133, 8-(2-furyl)-2-{[4-(4-isopropylpiperazin-1-yl)-3-methylphenyl]amino}-6-(2-methylphenyl)pyrimido[4,5-d]pyridazin-5(6H)-one]	3
Cc1ccccc1-n1nc(-c2ccccc2)c2nc(Nc3ccc(N4CCN(C(C)C)CC4)cc3)ncc2c1=O [Example 134, 2-{[4-(4-isopropylpiperazin-1-yl)phenyl]amino}-6-(2-methylphenyl)-8-phenylpyrimido[4,5-d]pyridazin-5(6H)-one]	0.6
Cc1ccccc1-n1nc(-c2ccco2)c2nc(Nc3ccc(N4CCCC4=O)cc3)ncc2c1=O [Example 135, 8-(2-furyl)-6-(2-methylphenyl)-2-{[4-(2-oxopyrrolidin-1-yl)phenyl]amino}pyrimido[4,5-d]pyridazin-5(6H)-one]	8
C=CCn1nc(-c2ccco2)c2nc(Nc3ccc(N4CCN(C(C)C)CC4)c(OC)c3)ncc2c1=O [Example 136, 6-allyl-8-(2-furyl)-2-{[4-(4-isopropylpiperazin-1-yl)-3-methoxyphenyl]amino}pyrimido[4,5-d]pyridazin-5(6H)-one]	14

Source: US8796289B2 (AbbVie Inc., priority 2011, dated 2014)
